Read-outs that look alike come from different tables or passages of the source.
Legend:
[1] = molecular target: T1, Human Indoleamine 2,3-dioxygenase (IDO) (Homo sapiens, UniProt P14902); assay: Human IDO enzymatic assay (kynurenine level); assay type: biochemical
T1 construct: His tag (N); made in house; host or cells: E. coli
In short: (§1)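 N-His human IDO (6 nM, 10 μM L-Trp, 5 μM methylene blue, 20 min) or TDO (1 nM, 350 μM L-Trp, 0.4 μM methylene blue, 70 min) run at room temp in pH 6.5 phosphate with ascorbate, catalase, Tween 20. TCA stop, 30 min 50 °C converts N-formylkynurenine to kynurenine; IC50 by nonlinear regression.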

[2] = molecular target: T2, Human Tryptophan 2,3-dioxygenase (TDO) (Homo sapiens, UniProt P48775); assay: Human TDO enzymatic assay (kynurenine level); assay type: biochemical
T2 construct: His tag (N); made in house; host or cells: E. coli
T2 sequence (P48775 whole entry): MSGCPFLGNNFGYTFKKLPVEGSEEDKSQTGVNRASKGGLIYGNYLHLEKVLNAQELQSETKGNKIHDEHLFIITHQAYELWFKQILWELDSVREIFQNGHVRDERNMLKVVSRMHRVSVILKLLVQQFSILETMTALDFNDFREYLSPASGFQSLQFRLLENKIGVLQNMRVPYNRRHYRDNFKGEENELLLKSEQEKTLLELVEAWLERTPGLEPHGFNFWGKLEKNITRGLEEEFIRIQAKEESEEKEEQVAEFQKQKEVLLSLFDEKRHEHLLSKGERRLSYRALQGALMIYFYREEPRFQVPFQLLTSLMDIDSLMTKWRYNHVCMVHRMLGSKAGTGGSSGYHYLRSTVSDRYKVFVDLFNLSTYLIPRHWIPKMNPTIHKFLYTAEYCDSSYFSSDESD
In short: as §1

[3] = molecular target: T3, human TDO (TDO-expressing HEK293 cells) (Homo sapiens, UniProt P48775); assay: Cell based kynurenine assay, TDO-expressing HEK293 cell clones
T3 construct: expressed in transfected cells
T3 sequence (P48775 whole entry): as above
Description: (§2) Determine Inhibitor Activity Against IDO or TDO in Cell Based Kynurenine Assay
(§3) IDO1-expressing or TDO-expressing HEK293 cell clones are generated upon stable transfection of plasmids expressing human IDO or human TDO under the control of CMV promoter. Cells are selected in DMEM media supplemented with 10% fetal bovine serum and 1 mg/ml G418 at 37° C. in a humidified incubator supplied with 5% CO2. The assays are performed as follows.
(§4) Cells were seeded in a 96 well plate in 50 μL of culture media at a density of 2.5×10^4 per well. Serial dilutions of compounds (in total volume of 50 μL culture media) are added into cells. 4 wells containing 0.2% DMSO treated cells serve as high controls and 4 wells containing media only with 0.2% DMSO serve as low controls. After 24 hours of incubation, the supernatant was transferred to a 384 well reaction plate and the kynurenine level determined. The percentage inhibition at individual concentrations relative to high and low controls is calculated. The data is analyzed by using nonlinear regression to generate IC50 values.

[4] = molecular target: T4, human IDO (IDO1-expressing HEK293 cells) (Homo sapiens, UniProt P14902); assay: Cell based kynurenine assay, IDO1-expressing HEK293 cell clones; conditions: IDO1-expressing HEK293 cells, 24 hours incubation; geometric mean; read-out: HEK293 IDO1 Kynurenine GMean IC50 (μM) (Cellular Assay)
T4 construct: expressed in transfected cells
T4 sequence (P14902 whole entry): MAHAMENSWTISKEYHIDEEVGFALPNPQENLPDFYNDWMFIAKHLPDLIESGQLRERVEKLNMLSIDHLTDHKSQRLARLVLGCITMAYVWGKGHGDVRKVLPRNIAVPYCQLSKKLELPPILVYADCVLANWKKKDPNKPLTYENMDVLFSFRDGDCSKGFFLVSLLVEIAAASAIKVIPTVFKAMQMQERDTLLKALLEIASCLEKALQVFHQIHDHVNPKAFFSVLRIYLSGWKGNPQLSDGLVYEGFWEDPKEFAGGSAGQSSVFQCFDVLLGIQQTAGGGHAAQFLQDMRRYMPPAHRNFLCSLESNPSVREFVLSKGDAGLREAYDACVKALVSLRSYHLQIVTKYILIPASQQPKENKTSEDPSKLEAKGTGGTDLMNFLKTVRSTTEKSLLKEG
Description: as §2, §3, §4

[5] = 6 nM IDO, 10 μM L-Trp, geometric mean, read-out: IDO1 GMean: IC50 (μM) (Biochemical Assay)
[6] = 1 nM TDO, 350 μM L-Trp, geometric mean, read-out: TDO GMean: IC50 (μM) (Biochemical Assay)
[7] = TDO-expressing HEK293 cells, 24 hours incubation, geometric mean, read-out: HEK293 TDO Kynurenine GMean IC50 (μM) (Cellular Assay)
[8] = biochemical assay, comparative examples, 4,6 versus 5,7 indazole, read-out: IDO1
[9] = biochemical assay, comparative examples, 4,6 versus 5,7 indazole, read-out: TDO
[10] = cellular assay, HEK293, 24 hours, comparative examples, read-out: hTDO

T1 sequence (P14902 whole entry): as above

| IC50 [1, 5] [µM] | IC50 [2, 6] [µM] | IC50 [3, 7] [µM] | IC50 [4] [µM] | IC50 [1, 8] [µM] | IC50 [2, 9] [µM] | IC50 [3, 10] [µM] | Structure (SMILES) |
| --- | --- | --- | --- | --- | --- | --- | --- |
| 0.0001 to 10 | 0.0001 to 10 | 0.0001 to 10 | 0.0001 to 10 |  |  |  | CC(C)(C)OC(=O)N1CCC(C(C)(C)C(O)c2cc(Cl)cc3cn[nH]c23)CC1 (racemic) [Compound P-0163, tert-butyl 4-(1-(5-chloro-1H-indazol-7-yl)-1-hydroxy-2-methylpropan-2-yl)piperidine-1-carboxylate] |
| 0.0001 to 10 | 0.0001 to 10 | 0.0001 to 10 | 0.0001 to 10 |  |  |  | OC(c1c(F)c(Cl)cc2cn[nH]c12)C12CCC(CC1)CC2 (racemic) [Compound P-0294, bicyclo[2.2.2]octan-1-yl(5-chloro-6-fluoro-1H-indazol-7-yl)methanol] |
| 0.0001 to 10 | 0.0001 to 10 | > 10 | > 10 |  |  |  | OC(c1cccnc1)c1cc(Cl)cc2cn[nH]c12 (stereo not shown) [Compound P-0001, (5-chloro-1H-indazol-7-yl)(pyridin-3-yl)methanol] |
| 0.0001 to 10 | 0.0001 to 10 | 0.0001 to 10 | 0.0001 to 10 |  |  |  | OC(c1cc(Cl)cc2cn[nH]c12)C1CCCCC1 (stereo not shown) [Compound P-0002, (5-chloro-1H-indazol-7-yl)(cyclohexyl)methanol] |
| 0.0001 to 10 | 0.0001 to 10 | 0.0001 to 10 | 0.0001 to 10 |  |  |  | OC(c1cc(Cl)cc2cn[nH]c12)C1(F)CCCCC1 (stereo not shown) [Compound P-0004, (5-chloro-1H-indazol-7-yl)(1-fluorocyclohexyl)methanol] |
| 0.0001 to 10 | 0.0001 to 10 | 0.0001 to 10 | 0.0001 to 10 |  |  |  | OC(c1cc(Cl)cc2cn[nH]c12)C1CCCC1 (stereo not shown) [Compound P-0005, (5-chloro-1H-indazol-7-yl)(cyclopentyl)methanol] |
| 0.0001 to 10 | 0.0001 to 10 | 0.0001 to 10 | 0.0001 to 10 |  |  |  | CC1(C(O)c2cc(Cl)cc3cn[nH]c23)CCCCC1 (stereo not shown) [Compound P-0006, (5-chloro-1H-indazol-7-yl)(1-methylcyclohexyl)methanol] |
| 0.0001 to 10 | 0.0001 to 10 | 0.0001 to 10 | 0.0001 to 10 |  |  |  | OC(CC1CCCCC1)c1cc(Cl)cc2cn[nH]c12 (stereo not shown) [Compound P-0007, 1-(5-chloro-1H-indazol-7-yl)-2-cyclohexylethan-1-ol] |
| 0.0001 to 10 | 0.0001 to 10 | 0.0001 to 10 | 0.0001 to 10 |  |  |  | CC(C)(C1CCCCC1)C(O)c1cc(Cl)cc2cn[nH]c12 (stereo not shown) [Compound P-0008, 1-(5-chloro-1H-indazol-7-yl)-2-cyclohexyl-2-methylpropan-1-ol] |
| 0.0001 to 10 | 0.0001 to 10 | > 10 | 0.0001 to 10 |  |  |  | OC(CCC1CCCCC1)c1cc(Cl)cc2cn[nH]c12 (stereo not drawn) [Compound P-0009, 1-(5-chloro-1H-indazol-7-yl)-3-cyclohexylpropan-l-ol] |
| 0.0001 to 10 | 0.0001 to 10 | 0.0001 to 10 | 0.0001 to 10 |  |  |  | OC(c1cc(Cl)cc2cn[nH]c12)C12CC3CC(CC(C3)C1)C2 [Compound P-0010, ((1S,3s)-adamantan-l-yl)(5-chloro-1H-indazol-7-yl)methanol] |
| 0.0001 to 10 | 0.0001 to 10 | 0.0001 to 10 | > 10 |  |  |  | OC1(c2cc(Cl)cc3cn[nH]c23)CC2(CCC2)C1 [Compound P-0012, 2-(5-chloro-1H-indazol-7-yl)spiro[3.3]heptan-2-ol] |
| 0.0001 to 10 | 0.0001 to 10 | 0.0001 to 10 | 0.0001 to 10 |  |  |  | CC1(C(O)c2cc(C(F)(F)F)cc3cn[nH]c23)CCCCC1 (stereo not shown) [Compound P-0013, (1-methylcyclohexyl)(5-(trifluoromethyl)-1H-indazol-7-yl)methanol] |
| 0.0001 to 10 | 0.0001 to 10 | 0.0001 to 10 | 0.0001 to 10 |  |  |  | Cc1cc(C(O)C2(C)CCCCC2)c2[nH]ncc2c1 (stereo not shown) [Compound P-0014, (5-methyl-1H-indazol-7-yl)(1-methylcyclohexyl)methanol] |
| 0.0001 to 10 | 0.0001 to 10 | 0.0001 to 10 | 0.0001 to 10 |  |  |  | OC(c1cc(Cl)cc2cn[nH]c12)C1CC(F)(F)C1 (stereo not shown) [Compound P-0017, (5-chloro-1H-indazol-7-yl)(3,3-difluorocyclobutyl)methanol] |
| 0.0001 to 10 | 0.0001 to 10 | 0.0001 to 10 | 0.0001 to 10 |  |  |  | CC1(C(O)c2cc(Cl)cc3cn[nH]c23)CC(F)(F)C1 (stereo not shown) [Compound P-0018, (5-chloro-1H-indazol-7-yl)(3,3-difluoro-1-methylcyclobutyl)methanol] |
|  | > 200 | > 10 | > 10 |  |  |  | OC1(c2cc(Cl)cc3cn[nH]c23)CC2(CCNCC2)C1 [Compound P-0020, 2-(5-chloro-1H-indazol-7-yl)-7-azaspiro[3.5]nonan-2-ol] |
| 0.0001 to 10 | 0.0001 to 10 | 0.0001 to 10 | 0.0001 to 10 |  |  |  | CC1(C(O)c2cc(Cl)cc3cn[nH]c23)CCCC1 (stereo not shown) [Compound P-0021, (5-chloro-1H-indazol-7-yl)(1-methylcyclopentyl)methanol] |
| 0.0001 to 10 | 0.0001 to 10 | 0.0001 to 10 | 0.0001 to 10 |  |  |  | OC(c1cc(Cl)cc2cn[nH]c12)C1CCC(F)(F)CC1 (stereo not shown) [Compound P-0022, (5-chloro-1H-indazol-7-yl)(4,4-difluorocyclohexyl)methanol] |
| 0.0001 to 10 | 0.0001 to 10 | 0.0001 to 10 | 0.0001 to 10 |  |  |  | CC1(C(O)c2c(Cl)c(Cl)cc3cn[nH]c23)CCCCC1 (stereo not shown) [Compound P-0025, (5,6-dichloro-1H-indazol-7-yl)(1-methylcyclohexyl)methanol] |
| 0.0001 to 10 | 0.0001 to 10 | 0.0001 to 10 | 0.0001 to 10 |  |  |  | CC(C)(Cc1ccccc1)C(O)c1cc(Cl)cc2cn[nH]c12 (stereo not shown) [Compound P-0026, 1-(5-chloro-1H-indazol-7-yl)-2,2-dimethyl-3-phenylpropan-1-ol] |
| 0.0001 to 10 | 0.0001 to 10 | 0.0001 to 10 | 0.0001 to 10 |  |  |  | CC(C)(c1ccccc1)C(O)c1cc(Cl)cc2cn[nH]c12 (stereo not shown) [Compound P-0027, 1-(5-chloro-1H-indazol-7-yl)-2-methyl-2-phenylpropan-1-ol] |
| 10 to 100 | 0.0001 to 10 | 0.0001 to 10 | > 10 |  |  |  | CS(=O)(=O)N1CC2(C1)CC(O)(c1cc(Cl)cc3cn[nH]c13)C2 [Compound P-0028, 6-(5-chloro-1H-indazol-7-yl)-2-(methylsulfonyl)-2-azaspiro[3.3]heptan-6-ol] |
| 0.0001 to 10 | 0.0001 to 10 | 0.0001 to 10 | 0.0001 to 10 |  |  |  | OC1(c2cc(Cl)cc3cn[nH]c23)CC2(CCOCC2)C1 [Compound P-0029, 2-(5-chloro-1H-indazol-7-yl)-7-oxaspiro[3.5]nonan-2-ol] |
| 0.0001 to 10 | 0.0001 to 10 | > 10 | > 10 |  |  |  | Cc1cc(C2(O)CC3(CCC3)C2)c2[nH]ncc2c1 [Compound P-0030, 2-(5-methyl-1H-indazol-7-yl)spiro[3.3]heptan-2-ol] |
| 0.0001 to 10 | 0.0001 to 10 | > 10 | > 10 |  |  |  | OC1(c2cc(C(F)(F)F)cc3cn[nH]c23)CC2(CCC2)C1 [Compound P-0031, 2-(5-(trifluoromethyl)-1H-indazol-7-yl)spiro[3.3]heptan-2-ol] |
|  |  |  |  | 22 | 0.04 | 0.03 | OC1(c2cc(Cl)cc3[nH]ncc23)CC2(CCC2)C1 [drawing 819] |
|  |  |  |  | ≥ 200 | 0.18 | 0.57 | OC1(c2cc(Cl)cc3[nH]ncc23)CC2(CCOCC2)C1 [drawing 821] |

From US10508085B2, “Compounds and methods for IDO and TDO modulation, and indications therefor” (Plexxikon Inc., priority 2016, dated 2019)
